Assay results published in the supplement of paper PMC10627819.

Legend:
[1] = test system: B. subtilis 168; assay: fitness (endpoint OD595 vs no drug) (fraction); higher = more growth
Outline: (§1)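 Growth medium was TSB, LB Lennox or CY, and plates were kept at 37 °C. Inoculation was at OD595 0.01 in 384-well plates, at 30 µl per well or 55 µl for S. pneumoniae. OD595 was monitored every 30 min for 14 h and background-subtracted using the first reading. Fitness is the optical density on entering stationary phase divided by the robust mean of no-drug controls, with values capped at 1.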

[2] = test system: S. aureus DSM 20231; assay: as above
Outline: as §1

[3] = test system: S. aureus Newman; assay: Bliss interaction score (quartile over a dose matrix) (fitness difference); higher = more antagonism (negative = synergy)
Outline: (§2)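 At entry into stationary phase, OD595 was recorded and divided by the robust mean of the no-drug wells on that plate, with any value above 1 set to 1. This gives the fitness measure used throughout. Single-drug fitness was inferred from combination data, and the Bliss score, observed minus product-expected fitness, is shown as quartiles across technical, biological and donor/recipient replicates.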

[4] = test system: B. subtilis 168; assay: as above
Outline: as §2

[5] = test system: S. pneumoniae D39V; assay: as above
Outline: as §2

[6] = test system: S. aureus DSM 20231; assay: as above
Outline: as §2
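Wherever Bliss interaction score (quartile over a dose matrix) is given: first quartile when negative (synergy) and third quartile when positive (antagonism).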

COc1c(N2C[C@@H]3CCCN[C@@H]3C2)c(F)cc2c(=O)c(C(=O)O)cn(C3CC3)c12 [Moxifloxacin] + COc1cc(Cc2cnc(N)nc2N)cc(OC)c1OC [Trimethoprim]
one replicate
Settings	fitness
[1], first compound 0.0312 µg/mL, partner 0.1 µg/mL	0.0166
[1], first compound 0.0312 µg/mL, partner 0.2 µg/mL	0.0497
[1], first compound 0.0312 µg/mL, partner 0.4 µg/mL	0.0325
[1], first compound 0.0625 µg/mL, partner 0.1 µg/mL	0.0397
[1], first compound 0.0625 µg/mL, partner 0.2 µg/mL	0.0393
[1], first compound 0.0625 µg/mL, partner 0.4 µg/mL	0.011
[1], first compound 0.125 µg/mL, partner 0.1 µg/mL	0.0162
[1], first compound 0.125 µg/mL, partner 0.2 µg/mL	0.0361
[1], first compound 0.125 µg/mL, partner 0.4 µg/mL	0.0203
[1], first compound 2 µg/mL, partner 1 µg/mL	0.0073
[1], first compound 2 µg/mL, partner 2 µg/mL	0.0287
[1], first compound 4 µg/mL, partner 1 µg/mL	0.0329
[1], first compound 4 µg/mL, partner 2 µg/mL	0.0297
[1], first compound 8 µg/mL, partner 1 µg/mL	0.0126
[1], first compound 8 µg/mL, partner 2 µg/mL	0.0291
[2], first compound 0.0075 µg/mL, partner 0.125 µg/mL	0.719
[2], first compound 0.015 µg/mL, partner 0.125 µg/mL	0.627
[2], first compound 0.06 µg/mL, partner 0.125 µg/mL	0.653
[2], first compound 0.06 µg/mL, partner 0.25 µg/mL	0.44
[2], first compound 0.06 µg/mL, partner 0.5 µg/mL	0.191
[2], first compound 0.12 µg/mL, partner 0.125 µg/mL	0.343
[2], first compound 0.12 µg/mL, partner 0.25 µg/mL	0.139
[2], first compound 0.12 µg/mL, partner 0.5 µg/mL	0.0509

fitness
Settings	partner 0.125 µg/mL	partner 0.25 µg/mL	partner 0.5 µg/mL	partner 1 µg/mL
[1], first compound 0.0312 µg/mL	0.0627	0.103	0.0656	–
[1], first compound 0.0625 µg/mL	0.0366	0.0436	0.0539	–
[1], first compound 0.125 µg/mL	0.0399	0.0294	0.0335	–
[1], first compound 2 µg/mL	–	–	0.0293	–
[1], first compound 4 µg/mL	–	–	0.0245	–
[1], first compound 8 µg/mL	–	–	0.0127	–
[2], first compound 0.0075 µg/mL	–	0.559	0.0549	0.0253
[2], first compound 0.015 µg/mL	–	0.525	0.0366	0.0226
[2], first compound 0.03 µg/mL	0.552	0.376	0.041	0.0152

Settings	Bliss interaction score
[3]	-0.193
[4]	0.0283
[5]	0.0963
[6]	-0.0854

CCCCCCCCCC(=O)N[C@H]1[C@H](Oc2c3cc4cc2Oc2ccc(cc2Cl)[C@@H](O[C@@H]2O[C@H](CO)[C@@H](O)[C@H](O)[C@H]2NC(C)=O)[C@@H]2NC(=O)[C@H](NC(=O)[C@@H]4NC(=O)[C@H]4NC(=O)[C@@H](Cc5ccc(c(Cl)c5)O3)NC(=O)[C@H](N)c3ccc(O)c(c3)Oc3cc(O)cc4c3)c3ccc(O)c(c3)-c3c(O[C@H]4O[C@H](CO)[C@@H](O)[C@H](O)[C@@H]4O)cc(O)cc3[C@@H](C(=O)O)NC2=O)O[C@H](CO)[C@@H](O)[C@@H]1O [Teicoplanin] + COc1cc(Cc2cnc(N)nc2N)cc(OC)c1OC [Trimethoprim]
fitness, [2], main component drawn
Settings	partner 0.125 µg/mL	partner 0.25 µg/mL	partner 0.5 µg/mL	partner 1 µg/mL
first compound 0.1562 µg/mL	0.733	0.591	0.0778	0.0229
first compound 0.3125 µg/mL	0.798	0.61	0.0585	0.0126
first compound 0.625 µg/mL	0.708	–	0.0794	0.0061

main component drawn
Settings	Bliss interaction score
[3]	-0.249
[4]	-0.0836
[5]	-0.0668
[6]	-0.167

COc1cc(Cc2cnc(N)nc2N)cc(OC)c1OC [Trimethoprim] + CC1=C\[C@@H](O)CC(=O)Cc2nc(co2)C(=O)N2CCC=C2C(=O)O[C@H](C(C)C)[C@H](C)/C=C/C(=O)NC\C=C\1 [Virginiamycin M1]
fitness, one replicate
Settings	partner 0.0625 µg/mL	partner 0.125 µg/mL	partner 0.25 µg/mL	partner 0.5 µg/mL	partner 1 µg/mL
[1], first compound 0.1 µg/mL	0.85	0.855	0.991	–	–
[1], first compound 0.125 µg/mL	0.738	0.722	0.71	–	–
[1], first compound 0.2 µg/mL	0.755	0.808	0.865	–	–
[1], first compound 0.4 µg/mL	0.57	0.483	0.576	–	–
[1], first compound 1 µg/mL	0.509	0.267	0.282	–	–
[1], first compound 2 µg/mL	0.408	0.285	0.377	–	–
[2], first compound 0.125 µg/mL	0.597	0.715	–	0.7	0.541
[2], first compound 0.25 µg/mL	–	–	–	0.573	0.626
[2], first compound 0.5 µg/mL	–	–	–	0.155	0.204

fitness
Settings	first compound 0.125 µg/mL	first compound 0.25 µg/mL	first compound 0.5 µg/mL	first compound 1 µg/mL
[1], partner 0.0625 µg/mL	–	–	0.585	–
[1], partner 0.125 µg/mL	–	0.704	0.471	–
[1], partner 0.25 µg/mL	–	–	0.557	–
[2], partner 0.0625 µg/mL	–	0.576	0.0684	0.0383
[2], partner 0.125 µg/mL	–	0.584	0.0768	0.0445
[2], partner 0.25 µg/mL	0.682	0.618	0.119	0.0595

Settings	Bliss interaction score
[3]	0.0354
[4]	0.0852
[5]	0.0652
[6]	-0.0966

COc1cc(Cc2cnc(N)nc2N)cc(OC)c1OC [Trimethoprim] + CN[C@H](CC(C)C)C(=O)N[C@H]1C(=O)N[C@@H](CC(N)=O)C(=O)N[C@H]2C(=O)N[C@H]3C(=O)N[C@H](C(=O)N[C@H](C(=O)O)c4cc(O)cc(O)c4-c4cc3ccc4O)[C@H](O)c3ccc(c(Cl)c3)Oc3cc2cc(c3O[C@@H]2O[C@H](CO)[C@@H](O)[C@H](O)[C@H]2O[C@H]2C[C@](C)(N)[C@H](O)[C@H](C)O2)Oc2ccc(cc2Cl)[C@H]1O [Vancomycin]
[2], first compound 0.125 µg/mL, one replicate
Settings	fitness
partner 0.1875 µg/mL	0.667
partner 0.375 µg/mL	0.898
partner 0.75 µg/mL	0.984

fitness, [2]
Settings	first compound 0.25 µg/mL	first compound 0.5 µg/mL	first compound 1 µg/mL
partner 0.1875 µg/mL	0.604	0.0644	0.0331
partner 0.375 µg/mL	0.613	–	0.0412
partner 0.75 µg/mL	0.62	–	0.0581

Settings	Bliss interaction score
[3]	-0.0768
[4]	0.0634
[5]	0.119
[6]	-0.0623
